Laboratory results taken from PubChem BioAssay AID256 (DTP/NCI, 2004).
Several values for one entry are separate records, joined by “and”; a condition that tells them apart may be missing. Equal values may be shown once. Inconclusive results and toxic doses are left out. Rule for the calls: active = survival T/C of 150% or more; inactive = T/C below 125% in these data.

Tested on: CD2F1 mice, L1210 leukemia ip, survival T/C
Assay: NCI In Vivo Anticancer Drug Screen. Data for tumor model L1210 Leukemia (intraperitoneal) in CD2F1 (CDF1) mice
Conditions: endpoint: mean survival time, higher = longer survival
Procedure, shortened: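 Compound-dosed mice with transplantable tumor versus matched vehicle controls; endpoint ratio T/C reported.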

[1] = dose: 75.0 mg/kg/injection, schedule: Q01DX001 (ip), vehicle: saline
[2] = dose: 150.0 mg/kg/injection, schedule: Q01DX001 (ip), vehicle: saline
[3] = dose: 300.0 mg/kg/injection, schedule: Q01DX001 (ip), vehicle: saline
[4] = dose: 100.0 mg/kg/injection, schedule: Q04DX003 (ip), vehicle: saline
[5] = dose: 200.0 mg/kg/injection, schedule: Q04DX003 (ip), vehicle: saline
[6] = dose: 400.0 mg/kg/injection, schedule: Q04DX003 (ip), vehicle: saline
[7] = dose: 100.0 mg/kg/injection, schedule: Q04DX003 (ip), vehicle: saline with Tween-80
[8] = dose: 200.0 mg/kg/injection, schedule: Q04DX003 (ip), vehicle: saline with Tween-80
[9] = dose: 400.0 mg/kg/injection, schedule: Q04DX003 (ip), vehicle: saline with Tween-80
[10] = dose: 100.0 mg/kg/injection, schedule: Q04DX002 (ip), vehicle: saline with Tween-80
[11] = dose: 200.0 mg/kg/injection, schedule: Q04DX002 (ip), vehicle: saline with Tween-80
[12] = dose: 400.0 mg/kg/injection, schedule: Q04DX002 (ip), vehicle: saline with Tween-80

Measured: T/C

NC(=O)CC(NC(=O)C(F)(F)F)C(=O)O (configuration not stated)
inactive: [1] 101 % of control | [2] 95 % of control | [3] 101 % of control

c1nc[nH]n1
inactive: dose: 100.0 mg/kg/injection, schedule: Q01DX009 (ip), vehicle: saline 98 % of control | [4] 95 % of control | dose: 200.0 mg/kg/injection, schedule: Q01DX009 (ip), vehicle: saline 98 % of control | [5] 97 % of control | dose: 400.0 mg/kg/injection, schedule: Q01DX009 (ip), vehicle: saline 93 % of control | [6] 100 % of control

ClC1(Cl)OC(Cl)(Cl)C(Cl)(Cl)OC1(Cl)Cl
inactive: dose: 50.0 mg/kg/injection, schedule: Q04DX003 (ip), vehicle: other 95 % of control | dose: 100.0 mg/kg/injection, schedule: Q04DX003 (ip), vehicle: other 91 % of control | dose: 200.0 mg/kg/injection, schedule: Q04DX003 (ip), vehicle: other 97 % of control

CC(=O)Nc1ccncn1
inactive: dose: 25.0 mg/kg/injection, schedule: Q04DX002 (ip), vehicle: saline with Tween-80 97 % of control | dose: 50.0 mg/kg/injection, schedule: Q04DX002 (ip), vehicle: saline with Tween-80 100 % of control

Clc1cc2ccccc2c(Cl)n1
inactive: dose: 100.0 mg/kg/injection, schedule: Q01DX001 (ip), vehicle: saline with Tween-80 92 % of control | dose: 200.0 mg/kg/injection, schedule: Q01DX001 (ip), vehicle: saline with Tween-80 89 % of control

CC(N)(C(=O)O)c1ccccc1 (configuration not stated)
inactive: dose: 100.0 mg/kg/injection, schedule: Q01DX001 (ip), vehicle: other 92 % of control and 96 % of control | dose: 200.0 mg/kg/injection, schedule: Q01DX001 (ip), vehicle: other 100 % of control and 102 % of control | dose: 400.0 mg/kg/injection, schedule: Q01DX001 (ip), vehicle: other 96 % of control and 94 % of control

O=C(C=C(C(F)(F)F)C(F)(F)F)c1ccco1
inactive: dose: 12.5 mg/kg/injection, schedule: Q04DX003 (ip), vehicle: saline with Tween-80 105 % of control | dose: 25.0 mg/kg/injection, schedule: Q04DX003 (ip), vehicle: saline with Tween-80 102 % of control | dose: 50.0 mg/kg/injection, schedule: Q04DX003 (ip), vehicle: saline with Tween-80 94 % of control

CCCCCC(=O)NNc1nc(N)nc2nonc12
inactive: dose: 6.25 mg/kg/injection, schedule: Q01DX005 (ip), vehicle: other 109 % of control | dose: 12.5 mg/kg/injection, schedule: Q01DX005 (ip), vehicle: other 97 % of control | dose: 25.0 mg/kg/injection, schedule: Q01DX005 (ip), vehicle: other 105 % of control | dose: 50.0 mg/kg/injection, schedule: Q01DX005 (ip), vehicle: other 97 % of control | dose: 100.0 mg/kg/injection, schedule: Q01DX005 (ip), vehicle: other 100 % of control

NCCN.[Ni+2].[O-]c1ccccc1[O-].[O-]c1ccccc1[O-]
inactive: dose: 0.78 mg/kg/injection, schedule: Q01DX009 (ip), vehicle: other 96 % of control | dose: 1.56 mg/kg/injection, schedule: Q01DX009 (ip), vehicle: other 93 % of control | dose: 3.13 mg/kg/injection, schedule: Q01DX009 (ip), vehicle: other 108 % of control | dose: 6.25 mg/kg/injection, schedule: Q01DX009 (ip), vehicle: other 112 % of control | dose: 12.5 mg/kg/injection, schedule: Q01DX009 (ip), vehicle: other 98 % of control

CC(=O)c1ccc2c(c1)-c1ccc(C(C)=O)cc1-2
inactive: [7] 86 % of control | [8] 86 % of control | [9] 90 % of control

O=C1OC2CCCCC2c2ccccc21 (configuration not stated)
inactive: [7] 98 % of control | [8] 96 % of control | [9] 98 % of control

O=C1NCC(C2CC2)(C2CC2)O1
inactive: [10] 108 % of control | [11] 100 % of control | [12] 100 % of control

CCOC(=O)Nc1cccc(C(F)(F)F)c1
inactive: dose: 100.0 mg/kg/injection, schedule: Q01DX009 (ip), vehicle: other 97 % of control | dose: 200.0 mg/kg/injection, schedule: Q01DX009 (ip), vehicle: other 101 % of control | dose: 400.0 mg/kg/injection, schedule: Q01DX009 (ip), vehicle: other 107 % of control

Cc1ccccc1/C1=C/CCCCCC1
inactive: dose: 100.0 mg/kg/injection, schedule: Q01DX001 (ip), vehicle: saline sonified 107 % of control | [7] 102 % of control | dose: 200.0 mg/kg/injection, schedule: Q01DX001 (ip), vehicle: saline sonified 94 % of control | [8] 104 % of control | dose: 400.0 mg/kg/injection, schedule: Q01DX001 (ip), vehicle: saline sonified 89 % of control | [9] 93 % of control

N=P(N[P+](N)(c1ccccc1)c1ccccc1)(c1ccccc1)c1ccccc1
inactive: dose: 1.56 mg/kg/injection, schedule: Q01DX009 (ip), vehicle: Klucel (hydroxypropylcellulose) (HPC) 103 % of control | dose: 3.12 mg/kg/injection, schedule: Q01DX009 (ip), vehicle: Klucel (hydroxypropylcellulose) (HPC) 103 % of control | dose: 6.25 mg/kg/injection, schedule: Q01DX009 (ip), vehicle: Klucel (hydroxypropylcellulose) (HPC) 91 % of control and 103 % of control

ClC12CCC(CC1)C2
inactive: [4] 100 % of control | [5] 94 % of control | [6] 100 % of control

COC1=CCC2=C(CCO2)C1
inactive: dose: 100.0 mg/kg/injection, schedule: Q01DX009 (ip), vehicle: acetone 91 % of control | dose: 200.0 mg/kg/injection, schedule: Q01DX009 (ip), vehicle: acetone 98 % of control | dose: 400.0 mg/kg/injection, schedule: Q01DX009 (ip), vehicle: acetone 100 % of control

CCC(O)C[As](=O)(O)c1cccc(Cl)c1 (configuration not stated)
inactive: dose: 0.39 mg/kg/injection, schedule: Q01DX009 (ip), vehicle: saline 95 % of control | dose: 0.78 mg/kg/injection, schedule: Q01DX009 (ip), vehicle: saline 97 % of control | dose: 1.56 mg/kg/injection, schedule: Q01DX009 (ip), vehicle: saline 103 % of control | dose: 3.13 mg/kg/injection, schedule: Q01DX009 (ip), vehicle: saline 114 % of control

CC1(CC(C)(C)C2CCCCC2)OCCO1
inactive: dose: 25.0 mg/kg/injection, schedule: Q01DX009 (ip), vehicle: Klucel (hydroxypropylcellulose) (HPC) 93 % of control | dose: 50.0 mg/kg/injection, schedule: Q01DX009 (ip), vehicle: Klucel (hydroxypropylcellulose) (HPC) 95 % of control | dose: 100.0 mg/kg/injection, schedule: Q01DX009 (ip), vehicle: Klucel (hydroxypropylcellulose) (HPC) 91 % of control

COC(=O)c1cccn1C(=O)c1ccccc1N
inactive: [10] 96 % of control | [11] 93 % of control | [12] 100 % of control

Cc1ccc(-[n+]2nscc2O)cc1
inactive: [1] 96 % of control | [2] 97 % of control | [3] 92 % of control

O=c1[nH][nH]c2nccnc12
inactive: dose: 12.5 mg/kg/injection, schedule: Q01DX005 (ip), vehicle: water 93 % of control | dose: 25.0 mg/kg/injection, schedule: Q01DX005 (ip), vehicle: water 93 % of control | dose: 50.0 mg/kg/injection, schedule: Q01DX005 (ip), vehicle: water 96 % of control | dose: 100.0 mg/kg/injection, schedule: Q01DX005 (ip), vehicle: water 98 % of control | dose: 200.0 mg/kg/injection, schedule: Q01DX005 (ip), vehicle: water 101 % of control
